Consider two compounds from PMC2267459, “Efficient display of active lipase LipB52 with a Pichia pastoris cell surface display system and comparison with the LipB52 displayed on Saccharomyces cerevisiae cell surface” (BMC Biotechnology, 2008).

The target of this assay is T1, LipB52 (Pseudomonas fluorescens, UniProt Q6GX93).
T1 construct: lipase fused at its N-terminus to the C-terminus of the FLO flocculation domain (Saccharomyces cerevisiae ATCC 60715) as display anchor
T1 sequence (Q6GX93 1-617): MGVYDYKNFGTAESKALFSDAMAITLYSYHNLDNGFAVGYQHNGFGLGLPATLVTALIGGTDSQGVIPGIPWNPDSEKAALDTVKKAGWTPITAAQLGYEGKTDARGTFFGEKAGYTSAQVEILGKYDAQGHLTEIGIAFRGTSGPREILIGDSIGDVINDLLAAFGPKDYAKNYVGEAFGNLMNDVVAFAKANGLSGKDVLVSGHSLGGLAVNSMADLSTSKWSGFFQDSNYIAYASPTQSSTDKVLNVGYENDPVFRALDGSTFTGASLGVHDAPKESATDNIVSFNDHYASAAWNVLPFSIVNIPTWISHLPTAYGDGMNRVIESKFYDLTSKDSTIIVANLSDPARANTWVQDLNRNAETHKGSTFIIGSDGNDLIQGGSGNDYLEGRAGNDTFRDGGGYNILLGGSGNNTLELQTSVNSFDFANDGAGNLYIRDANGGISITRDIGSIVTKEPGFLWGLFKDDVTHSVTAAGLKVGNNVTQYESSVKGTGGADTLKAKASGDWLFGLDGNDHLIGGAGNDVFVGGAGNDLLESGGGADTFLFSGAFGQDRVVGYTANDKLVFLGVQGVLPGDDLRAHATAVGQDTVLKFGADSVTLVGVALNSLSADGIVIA
Put plainly: p-nitrophenol release by displayed whole cells. In kind it is cell-based. Particulars: yeast surface-displayed (whole-cell) enzyme.

Turning to `CCCCCCCCCC(=O)Oc1ccc([N+](=O)[O-])cc1` [C10, p-nitrophenol-caprate], where the note is “pH 8.0, 40 °C”, the “p-nitrophenol release by displayed whole cells” value is listed as “the optimum substrate was p-nitrophenol-caprate (C10)”.

`CCCCCCCCCCCC(=O)Oc1ccc([N+](=O)[O-])cc1` [C12, p-nitrophenol ester (C12)]: under “conditions not stated for this substrate”, the “p-nitrophenol release by displayed whole cells” value is recorded as “exhibited evident hydrolysis activity towards the p-nitrophenol ester”.
